Measurements reported in EP3046573B1, “AMYLIN ANALOGUES” (Zealand Pharma A/S, priority 2013, dated 2015).
Where two headings read alike, the source gives them in different places. Numbered stars: 1 amine (or outer) side, 2 acyl side, 3 side chain; on linkers, the order of the positions; unused ones are H or OH. Bridge positions count the residues as written; N and C are the ends. Square brackets hold non-standard residues; d marks the D form. Peptide text beside a SMILES is read from it. * marks the point of attachment. C20 diacid = O=C(O)CCCCCCCCCCCCCCCCCCC(=O)*; γGlu = O=C(O)[C@H](CCC(=O)[*:2])N[*:1]; NMeI = CC[C@H](C)[C@H](NC)C(=O)O; Sar = CNCC(=O)O

What was measured:
[1] = Solubility assessment (turbidity absorbance at 325 nm); type: physicochemical; details: stock 2 mg/ml diluted 1:1, ambient temperature (typically 25°C), n=1; for Solubility, Acetate buffer pH 4: 100 mM acetate buffer pH 4.0; for Solubility, Acetate buffer pH 5: 100 mM acetate buffer pH 5.0; for Solubility, Histidine buffer pH 6: 100 mM histidine buffer pH 6.0; for Solubility, Histidine buffer pH 7: 100 mM histidine buffer pH 7.0; for Solubility, Phosphate buffer pH 6: 100 mM phosphate buffer pH 6.0; for Solubility, Phosphate buffer pH 7: 100 mM phosphate buffer pH 7.0; for Solubility, Phosphate buffer pH 7.5: 100 mM phosphate buffer pH7.5
Outline: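 Stock 2 mg/ml peptide, H2O/HCl pH 2.5; 1:1 into 100 mM buffers: acetate pH 4.0/5.0, His pH 6.0/7.0, phosphate pH 6.0/7.0/7.5. A280 + A325, ~25°C, n=1. Soluble ≥ 1 mg/ml if A325 ≤ 0.02.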

[2] = biological target: T1, human calcitonin receptor (hCTR2) (Homo sapiens, UniProt P30988); assay: hCTR2 assay: induction of cAMP (AlphaScreen cAMP Assay kit) in COS7 cells expressing hCTR2; type: cell-based
T1 construct: expressed in transfected cells
T1 sequence (P30988 25-474): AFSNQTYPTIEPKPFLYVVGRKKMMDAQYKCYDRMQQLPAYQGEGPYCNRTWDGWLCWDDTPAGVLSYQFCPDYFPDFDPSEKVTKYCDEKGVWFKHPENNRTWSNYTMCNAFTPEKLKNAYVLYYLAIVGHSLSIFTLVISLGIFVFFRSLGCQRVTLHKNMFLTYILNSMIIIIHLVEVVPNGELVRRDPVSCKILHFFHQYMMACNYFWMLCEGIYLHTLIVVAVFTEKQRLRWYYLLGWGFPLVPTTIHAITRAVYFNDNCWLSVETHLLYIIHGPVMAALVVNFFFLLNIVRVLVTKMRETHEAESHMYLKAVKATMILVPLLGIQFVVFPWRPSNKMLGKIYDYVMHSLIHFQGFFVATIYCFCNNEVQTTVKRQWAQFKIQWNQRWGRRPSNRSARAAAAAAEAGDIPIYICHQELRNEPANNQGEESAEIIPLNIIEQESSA
Outline: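 Stable RAMP-naive COS7 clone expressing hCTR2 was stimulated with increasing peptide concentrations in Tyrode buffer (pH 7.4) with 100 µM IBMX and 0.1% casein for 15 min at 37° C. Cells were lysed and cAMP measured by AlphaScreen. EC50 and efficacy relative to pramlintide came from 4PL curve fits.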

Row | EC50 ([2]; cAMP induction in COS7 cells expressing hCTR2, average of a minimum of 3 determinations, read-out: hCTR2 EC50) [nM] | Structure (SMILES) | Solubility, Acetate buffer pH 4 [1] | Solubility, Acetate buffer pH 5 [1] | Solubility, Histidine buffer pH 6 [1] | Solubility, Histidine buffer pH 7 [1] | Solubility, Phosphate buffer pH 6 [1] | Solubility, Phosphate buffer pH 7 [1] | Solubility, Phosphate buffer pH 7.5 [1] | EC50 [2] [nM]
1 |  | CC[C@H](C)[C@@H](C(=O)N[C@@H](CC(C)C)C(=O)N[C@@H](CO)C(=O)N[C@@H](CO)C(=O)N[C@@H](CC(N)=O)C(=O)N[C@H](C(=O)NCC(=O)N[C@@H](CO)C(=O)N[C@@H](CC(N)=O)C(=O)N[C@H](C(=O)N1CCC[C@H]1C(N)=O)[C@@H](C)O)C(C)C)N(C)C(=O)[C@H](C)NC(=O)CN(C)C(=O)[C@H](Cc1ccccc1)NC(=O)[C@H](CC(N)=O)NC(=O)[C@H](CC(N)=O)NC(=O)[C@H](CO)NC(=O)[C@H](CO)NC(=O)[C@H](Cc1c[nH]cn1)NC(=O)[C@H](Cc1c[nH]cn1)NC(=O)[C@H](CC(C)C)NC(=O)[C@H](Cc1ccccc1)NC(=O)[C@H](CCC(=O)O)NC(=O)[C@H](C)NC(=O)[C@H](CC(C)C)NC(=O)[C@H](CCCNC(=N)N)NC(=O)[C@H](CCC(N)=O)NC(=O)[C@@H](NC(=O)[C@H](C)NC(=O)[C@@H]1CSSC[C@H](NC(=O)[C@H](CCCNC(=N)N)NC(=O)CC[C@H](NC(=O)CCCCCCCCCCCCCCCCCCC(=O)O)C(=O)O)C(=O)N[C@@H](CC(N)=O)C(=O)N[C@@H]([C@@H](C)O)C(=O)N[C@@H](C)C(=O)N[C@@H]([C@@H](C)O)C(=O)N1)[C@@H](C)O [Compound 37, [19CD]-isoGlu-RC()NTATC()ATQRLAEFLHHSSNNF-Gly(Me)-A-Ile(Me)-LSSNVGSNTP-NH2] ({C20 diacid-γGlu}-RCNTATCATQRLAEFLHHSSNNF[Sar]A[NMeI]LSSNVGSNTP-NH2; disulfide 2-7) | SS (SS indicates solubility ≥ 1mg/ml) | SS (SS indicates solubility ≥ 1mg/ml) | SS (SS indicates solubility ≥ 1mg/ml) | SS (SS indicates solubility ≥ 1mg/ml) | SS (SS indicates solubility ≥ 1mg/ml) | SS (SS indicates solubility ≥ 1mg/ml) | SS (SS indicates solubility ≥ 1mg/ml) | 0.39
2 |  | CC[C@H](C)[C@@H](C(=O)N[C@@H](CC(C)C)C(=O)N[C@@H](CO)C(=O)N[C@@H](CO)C(=O)N[C@H](C(=O)N[C@@H](CC(N)=O)C(=O)N[C@H](C(=O)NCC(=O)N[C@@H](CO)C(=O)N[C@@H](CC(N)=O)C(=O)N[C@H](C(=O)N1CCC[C@H]1C(N)=O)[C@@H](C)O)C(C)C)[C@@H](C)O)N(C)C(=O)CN(C)C(=O)[C@H](Cc1ccccc1)NC(=O)[C@H](CC(N)=O)NC(=O)[C@H](CO)NC(=O)[C@H](CO)NC(=O)[C@H](Cc1c[nH]cn1)NC(=O)[C@H](Cc1c[nH]cn1)NC(=O)[C@H](CC(C)C)NC(=O)[C@H](Cc1ccccc1)NC(=O)[C@H](CCC(=O)O)NC(=O)[C@H](C)NC(=O)[C@H](CC(C)C)NC(=O)[C@H](CCCNC(=N)N)NC(=O)[C@H](CCC(N)=O)NC(=O)[C@@H](NC(=O)[C@H](C)NC(=O)[C@@H]1CSSC[C@H](NC(=O)[C@H](CCCNC(=N)N)NC(=O)CC[C@H](NC(=O)CCCCCCCCCCCCCCCCCCC(=O)O)C(=O)O)C(=O)N[C@@H](CC(N)=O)C(=O)N[C@@H]([C@@H](C)O)C(=O)N[C@@H](C)C(=O)N[C@@H]([C@@H](C)O)C(=O)N1)[C@@H](C)O [Compound 38, [19CD]-isoGlu-RC()NTATC()ATQRLAEFLHHSSNF-Gly(Me)-Ile(Me)-LSSTNVGSNTP-NH2] ({C20 diacid-γGlu}-RCNTATCATQRLAEFLHHSSNF[Sar][NMeI]LSSTNVGSNTP-NH2; disulfide 2-7) | II (II indicates solubility ≤ 1 mg/ml) | II (II indicates solubility ≤ 1 mg/ml) | II (II indicates solubility ≤ 1 mg/ml) | II (II indicates solubility ≤ 1 mg/ml) | II (II indicates solubility ≤ 1 mg/ml) | II (II indicates solubility ≤ 1 mg/ml) | II (II indicates solubility ≤ 1 mg/ml) | 0.16
3 |  | CC[C@H](C)[C@@H](C(=O)N[C@@H](CC(C)C)C(=O)N[C@@H](CO)C(=O)N[C@@H](CO)C(=O)N[C@H](C(=O)N[C@@H](CC(N)=O)C(=O)N[C@H](C(=O)NCC(=O)N[C@@H](CO)C(=O)N[C@@H](CC(N)=O)C(=O)N[C@H](C(=O)N1CCC[C@H]1C(N)=O)[C@@H](C)O)C(C)C)[C@@H](C)O)N(C)C(=O)[C@H](C)NC(=O)CN(C)C(=O)[C@H](Cc1ccccc1)NC(=O)[C@H](CC(N)=O)NC(=O)[C@H](CC(N)=O)NC(=O)[C@H](CO)NC(=O)[C@H](CO)NC(=O)[C@H](Cc1c[nH]cn1)NC(=O)[C@H](CC(C)C)NC(=O)[C@H](Cc1ccccc1)NC(=O)[C@H](CCC(=O)O)NC(=O)[C@H](C)NC(=O)[C@H](CC(C)C)NC(=O)[C@H](CCCNC(=N)N)NC(=O)[C@H](CCC(N)=O)NC(=O)[C@@H](NC(=O)[C@H](C)NC(=O)[C@@H]1CSSC[C@H](NC(=O)[C@H](CCCNC(=N)N)NC(=O)CC[C@H](NC(=O)CCCCCCCCCCCCCCCCCCC(=O)O)C(=O)O)C(=O)N[C@@H](CC(N)=O)C(=O)N[C@@H]([C@@H](C)O)C(=O)N[C@@H](C)C(=O)N[C@@H]([C@@H](C)O)C(=O)N1)[C@@H](C)O [Compound 39, [19CD]-isoGlu-RC()NTATC()ATQRLAEFLHSSNNF-Gly(Me)-A-Ile(Me)-LSSTNVGSNTP-NH2] ({C20 diacid-γGlu}-RCNTATCATQRLAEFLHSSNNF[Sar]A[NMeI]LSSTNVGSNTP-NH2; disulfide 2-7) | SS (SS indicates solubility ≥ 1mg/ml) | SS (SS indicates solubility ≥ 1mg/ml) | SS (SS indicates solubility ≥ 1mg/ml) | SS (SS indicates solubility ≥ 1mg/ml) | SS (SS indicates solubility ≥ 1mg/ml) | SS (SS indicates solubility ≥ 1mg/ml) | SS (SS indicates solubility ≥ 1mg/ml) | 0.19
4 | 0.38 | CC[C@H](C)[C@@H](C(=O)N[C@@H](CC(C)C)C(=O)N[C@@H](CO)C(=O)N[C@@H](CO)C(=O)N[C@H](C(=O)N[C@@H](CC(N)=O)C(=O)N[C@H](C(=O)NCC(=O)N[C@@H](CO)C(=O)N[C@@H](CC(N)=O)C(=O)N[C@H](C(=O)N1CCC[C@H]1C(N)=O)[C@@H](C)O)C(C)C)[C@@H](C)O)N(C)C(=O)CN(C)C(=O)[C@H](Cc1ccccc1)NC(=O)[C@H](CC(N)=O)NC(=O)[C@H](CC(N)=O)NC(=O)[C@H](CO)NC(=O)[C@H](CO)NC(=O)[C@H](Cc1c[nH]cn1)NC(=O)[C@H](CC(C)C)NC(=O)[C@H](Cc1ccccc1)NC(=O)[C@H](CCC(=O)O)NC(=O)[C@H](C)NC(=O)[C@H](CC(C)C)NC(=O)[C@H](CCCNC(=N)N)NC(=O)[C@H](CCC(N)=O)NC(=O)[C@@H](NC(=O)[C@H](C)NC(=O)[C@@H]1CSSC[C@H](NC(=O)[C@H](CCCNC(=N)N)NC(=O)CC[C@H](NC(=O)CCCCCCCCCCCCCCCCCCC(=O)O)C(=O)O)C(=O)N[C@@H](CC(N)=O)C(=O)N[C@@H]([C@@H](C)O)C(=O)N[C@@H](C)C(=O)N[C@@H]([C@@H](C)O)C(=O)N1)[C@@H](C)O [Compound 40, [19CD]-isoGlu-RC()NTATC()ATQRLAEFLHSSNNF-Gly(Me)-Ile(Me)-LSSTNVGSNTP-NH2] ({C20 diacid-γGlu}-RCNTATCATQRLAEFLHSSNNF[Sar][NMeI]LSSTNVGSNTP-NH2; disulfide 2-7) | SS (SS indicates solubility ≥ 1mg/ml) | SS (SS indicates solubility ≥ 1mg/ml) | SS (SS indicates solubility ≥ 1mg/ml) | SS (SS indicates solubility ≥ 1mg/ml) | SS (SS indicates solubility ≥ 1mg/ml) | SS (SS indicates solubility ≥ 1mg/ml) | SS (SS indicates solubility ≥ 1mg/ml) | 
